US9486457B2, “Use of cinnabarinic acid as a modulator of immune responses in autoimmune disorders” (The Regents of the University of California, priority 2010, dated 2016)
Entries after “also recorded” stand apart in the source; their conditions may differ.

Legend:
[1] = test system: experimental allergic encephalomyelitis (EAE); assay: Experimental allergic/autoimmune encephalomyelitis (EAE) induced with MOG peptide and CFA; format: in vivo, C57BL/6 mice; details: for development / induction of EAE (disease occurrence and severity): single dose (1 mg/mouse) at Day 0 within the emulsion containing MOG peptide and adjuvant, compared to DMSO
Method: FIGS. 10A and 10B illustrate the number or frequency of cytokine producing cells within the CNS (or spleen) of mice treated at day 0 with 1 dose of CA (1 mg/mouse) or vehicle (DMSO) within the emulsion contain MOG peptide and adjuvant. Representative flow plots are shown at the bottom of the figures. EAE survival curve for 10 animals treated with CA or with DMSO showing that 1/10 animals treated with CA gets sick whereas 9/10 animals treated with vehicle (DMSO) are sick at the indicated timepoint.
However, TCDD and FICZ are both known AHR agonists, like CA, whereas 3,4 DAA appears to act as an antagonist. Therefore the regulation of the Th17/Th22/Treg cell differentiation pathways at the level of the AHR is likely to be more complex than merely reflecting the presence of an agonistic or antagonistic ligand. To assess whether CA was protective in EAE we performed a series of experiments in which CA was administered in a single dose (1 mg/mouse) contained within the emulsion used to induce disease.

[2] = target: T1, AHR (Mus musculus, UniProt P30561); assay: AHR-responsive (dioxin responsive element) GFP reporter assay in H1G1 mouse hepatoma cells; format: cell-based; details: agonist mode
T1 construct: murine hepatoma cell line stably transfected with an AhR-responsive (AhR-eGFP) reporter construct; endogenous in cells
T1 sequence (P30561 10-848): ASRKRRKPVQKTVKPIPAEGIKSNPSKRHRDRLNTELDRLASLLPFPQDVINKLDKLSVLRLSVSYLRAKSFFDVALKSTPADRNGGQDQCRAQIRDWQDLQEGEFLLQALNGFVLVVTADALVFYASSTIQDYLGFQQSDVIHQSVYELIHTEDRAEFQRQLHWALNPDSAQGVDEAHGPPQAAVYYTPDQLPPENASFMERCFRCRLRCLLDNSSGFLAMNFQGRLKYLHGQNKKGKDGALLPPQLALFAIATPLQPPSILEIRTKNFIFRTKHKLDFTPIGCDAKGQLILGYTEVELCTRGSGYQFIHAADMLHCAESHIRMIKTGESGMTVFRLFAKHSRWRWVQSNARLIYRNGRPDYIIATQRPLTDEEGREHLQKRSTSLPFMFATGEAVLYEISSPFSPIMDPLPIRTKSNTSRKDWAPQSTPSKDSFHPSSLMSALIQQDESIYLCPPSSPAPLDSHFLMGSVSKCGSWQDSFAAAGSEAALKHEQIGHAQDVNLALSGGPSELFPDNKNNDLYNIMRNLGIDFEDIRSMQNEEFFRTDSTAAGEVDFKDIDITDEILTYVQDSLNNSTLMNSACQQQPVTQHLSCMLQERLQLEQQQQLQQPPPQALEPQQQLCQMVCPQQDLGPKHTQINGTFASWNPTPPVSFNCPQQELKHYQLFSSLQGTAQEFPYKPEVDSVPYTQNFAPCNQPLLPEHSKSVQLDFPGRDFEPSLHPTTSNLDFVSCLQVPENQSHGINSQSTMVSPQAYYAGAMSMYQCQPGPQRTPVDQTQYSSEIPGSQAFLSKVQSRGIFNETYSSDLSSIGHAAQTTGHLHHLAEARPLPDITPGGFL
From the text: (§1) We performed a precursory screen of all tryptophan metabolites including both 3-HKA and 3-HAA to bind to and act as agonists or antagonists of the AHR using two separate assays. First we examined the ability of 3-HKyn, 3-HAA, and PA to displace TCDD binding to the human AHR protein in vitro (20). […] We also measured AHR activation using a mouse hepatoma cell line (H1G1) that stably expresses a green fluorescent protein (GFP) reporter construct downstream of a series of dioxin responsive elements (FIG. 7A) (21).

[3] = target: T2, human AHR protein (Homo sapiens, UniProt P35869); assay: Displacement of TCDD binding to in vitro translated human AHR protein; details: cell-free
T2 sequence (P35869 11-848): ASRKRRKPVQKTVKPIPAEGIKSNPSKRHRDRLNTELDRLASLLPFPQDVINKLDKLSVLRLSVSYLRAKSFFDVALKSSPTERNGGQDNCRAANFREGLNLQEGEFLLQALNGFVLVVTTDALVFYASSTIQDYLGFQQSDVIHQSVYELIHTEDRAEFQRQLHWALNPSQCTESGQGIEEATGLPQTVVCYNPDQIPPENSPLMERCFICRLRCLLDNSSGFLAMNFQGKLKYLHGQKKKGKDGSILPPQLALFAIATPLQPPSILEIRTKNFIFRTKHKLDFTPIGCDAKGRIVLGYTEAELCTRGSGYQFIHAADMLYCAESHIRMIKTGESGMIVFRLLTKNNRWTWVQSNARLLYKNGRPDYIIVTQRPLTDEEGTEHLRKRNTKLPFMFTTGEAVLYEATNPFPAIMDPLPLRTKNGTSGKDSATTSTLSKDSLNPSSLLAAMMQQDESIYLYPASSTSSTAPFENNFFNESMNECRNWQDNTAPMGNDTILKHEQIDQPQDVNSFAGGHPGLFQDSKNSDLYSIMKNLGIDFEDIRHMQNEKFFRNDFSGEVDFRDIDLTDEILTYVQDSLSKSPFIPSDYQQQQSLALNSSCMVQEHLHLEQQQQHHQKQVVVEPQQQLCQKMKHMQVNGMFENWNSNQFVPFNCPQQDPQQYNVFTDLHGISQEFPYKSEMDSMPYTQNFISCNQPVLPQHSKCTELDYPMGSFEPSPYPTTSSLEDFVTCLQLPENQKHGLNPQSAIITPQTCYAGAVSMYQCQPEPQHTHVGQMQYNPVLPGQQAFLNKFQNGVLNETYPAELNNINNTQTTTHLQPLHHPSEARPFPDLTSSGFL
From the text: as §1

[4] = test system: human naïve CD4+ T cells; assay: IL-22 induction in cultured human naïve CD4+ T cells stimulated with anti-CD3/anti-CD28 under Th17 polarizing conditions; format: cell-based; details: CA 25 μM in FIG. 8D
From the text: This is AHR dependent as inclusion of an AHR antagonist fully abrogated effect.
FIG. 8: CA is an endogenous AhR agonist generated by oxidative dimerization of 3-HAA. (A) An alternative pathway of 3-HAA metabolism leads to the generation of CA either by non-enzymatic (oxidation) or enzymatic (laccase, ceruloplasmin) processes. CA is structurally similar to the synthetic AhR ligand TCDD. […] Data are representative of three similar experiments.

[5] = test system: naïve (CD45RA+CCR7+CD95−CD25−) CD4+ T cells; assay: Foxp3 induction in stimulated naïve CD4+ T cells; format: cell-based, human; details: stimulated naïve CD4+ T cells in vitro
From the text: FIG. 9: The synthetic 3-HAA analogue 3,4 DAA (Tranilast) is an AhR antagonist and promotes the induction of Foxp3 by stimulated CD4+ T cells. (A) 3,4 DAA shares some structural similarities to 3-HAA (highlighted region).
Therefore we asked whether T cells treated with 3,4 DAA might be prompted to differentiate into Treg cells through upregulation of the transcription factor Foxp3 (26).

[6] = test system: lymphocytes; assay: CYP1A1 transcription within lymphocytes; format: cell-based
From the text: (§2) 3-HAA is particularly susceptible to oxidation, resulting in the formation of the metabolite cinnabarinic acid (CA) through dimerization of two molecules of 3-HAA (24). […] In addition, CA has potent effects on thymocyte maturation (25) not unlike what has been observed in rodents treated with TCDD (26-28) or in transgenic mice with a constitutively active AHR (29). To test the hypothesis that CA is an AHR ligand, we obtained pure CA, prepared through a chemical synthesis using 3-HAA as a starting material and purified by HPLC, and analyzed its ability to bind to and activate the AHR in vitro.

[7] = test system: zebrafish embryos; assay: CYP1A1 induction in zebrafish embryos; format: in vivo; details: within 72 hours
From the text: as §2

[8] = single dose 1 mg/mouse in the emulsion

Q: What does the source list for `Nc1c(C(=O)O)c2nc3c(C(=O)O)cccc3oc-2cc1=O` [Cinnabarinic Acid, cinnabarinic acid]?
A: animals that get sick (EAE survival curve) ([1]; 10 animals, 1 dose of CA (1 mg/mouse) at day 0, 9/10 with vehicle (DMSO)): 1/10; Foxp3+ Treg cells in the CNS [1, 8]: but not in the CNS; Foxp3+ Treg cells in the spleen [1, 8]: slight, but significant, increase in Foxp3+ Treg cells in the spleen; frequency and number of Th17 and Th22 cells in the spleen [1, 8]: increase in the frequency and number of Th17 and Th22 cells in the spleen; frequency of infiltrating Th17 and Th22 cells in the CNS [1, 8]: decrease in the frequency of infiltrating Th17 and Th22 cells; number of infiltrating T cells in the central nervous system (CNS) [1, 8]: greatly reduced number of infiltrating T cells in the central nervous system (CNS); development / induction of EAE (disease occurrence and severity) [1]: inhibits the development of experimental allergic encephalomyelitis (EAE); also recorded: inhibits the induction of EAE; development / induction of EAE (disease occurrence and severity) ([1]; listed as CA): suppress autoimmunity in a mouse model of multiple sclerosis; also recorded: significant reduction of disease occurrence and severity; also recorded: almost completely block the development of EAE; development / induction of EAE (disease occurrence and severity) ([1]; listed as Cinnabaric Acid): inhibits the induction of EAE; proliferation of splenocytes on restimulation with MOG peptide ([1]; splenocytes from CA treated mice): significantly greater amount of proliferation; AHR agonist activity (activation of AHR-responsive reporter) [2]: activates AHR responsive (Dioxin Responsive Elements); AHR agonist activity (activation of AHR-responsive reporter) ([2]; listed as CA): able to bind to and activate the AHR at much lower concentrations than that observed for 3-HAA; also recorded: potent agonist of the AhR; displacement / inhibition of TCDD binding to human AHR [3]: displaces Dioxin (TCDD); displacement / inhibition of TCDD binding to human AHR ([3]; listed as CA): able to bind to and activate the AHR at much lower concentrations than that observed for 3-HAA; also recorded: dose-dependent inhibition of TCDD binding; IL-22 induction [4]: potently induces IL-22; IL-22 induction ([4]; listed as CA): stimulate the differentiation of a newly defined subset of human T cells that produce the cytokine IL-22; also recorded: promoted IL-22 production more strongly than any other tryptophan metabolite tested; also recorded: potently induces IL-22; Foxp3 expression (frequency of CD4+Foxp3+ T cells) [5]: did not appear to promote Foxp3 upregulation; CYP1A1 transcription [6]: upregulation of CYP1A1 transcription within lymphocytes; CYP1A1 induction [7]: potent induction of CYP1A1 in zebrafish embryos
